Laboratory results: the supplement of paper PMC10307832

What was measured:
Assay in all cases: relative viability (nuclei count vs DMSO), 5 days (fraction); higher = more cells survive
[1] = compound: CN(NC(=O)CC(=O)NN(C)C(=S)c1ccccc1)C(=S)c1ccccc1 [Elesclomol] + CC(=O)Nc1cccc(-n2c(=O)n(C3CC3)c(=O)c3c(Nc4ccc(I)cc4F)n(C)c(=O)c(C)c32)c1 [Trametinib] (partner 0.02 µM)
Outline: (§1)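 Relative viability divides the nuclei count in treated wells by that in vehicle wells. Lung cancer cell lines were seeded in 1536-well plates, dosed by pin tool the next day, and fixed and stained after 5 days in one step with final 0.05% Triton X-100, 1% formaldehyde and 1 ug/ml Hoechst. Dosing was a single drug or a fixed anchor-drug dose plus five library-drug doses (not always all listed) in √10 steps, and values are medians of duplicate plates imaged at 4×.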

[2] = compound: CN(NC(=O)CC(=O)NN(C)C(=S)c1ccccc1)C(=S)c1ccccc1 [Elesclomol] + CC1(C)CCC(c2ccc(Cl)cc2)=C(CN2CCN(c3ccc(C(=O)NS(=O)(=O)c4ccc(N[C@H](CCN5CCOCC5)CSc5ccccc5)c(S(=O)(=O)C(F)(F)F)c4)cc3)CC2)C1 [Navitoclax] (partner 0.5 µM)
Outline: as §1

[3] = compound: CN(NC(=O)CC(=O)NN(C)C(=S)c1ccccc1)C(=S)c1ccccc1 [Elesclomol] + CCNC(=O)c1noc(-c2cc(C(C)C)c(O)cc2O)c1-c1ccc(CN2CCOCC2)cc1 [Luminespib] (partner 0.01 µM)
Outline: as §1

[4] = compound: CN(NC(=O)CC(=O)NN(C)C(=S)c1ccccc1)C(=S)c1ccccc1 [Elesclomol] + NC(=O)Nc1cc(-c2cccc(F)c2)sc1C(=O)N[C@H]1CCCNC1 [AZD7762] (partner 0.2 µM)
Outline: as §1

[5] = compound: CN(NC(=O)CC(=O)NN(C)C(=S)c1ccccc1)C(=S)c1ccccc1 [Elesclomol] + Nc1ncn([C@H]2C[C@H](O)[C@@H](CO)O2)c(=O)n1 [Decitabine] (partner 2 µM)
Outline: as §1

Row | Cell Line | relative viability ([1]; first compound 0.003162 µM) | relative viability ([1]; first compound 0.01 µM) | relative viability ([1]; first compound 0.03162 µM) | relative viability ([1]; first compound 0.1 µM) | relative viability ([2]; first compound 0.003162 µM) | relative viability ([2]; first compound 0.01 µM) | relative viability ([2]; first compound 0.03162 µM) | relative viability ([2]; first compound 0.1 µM) | relative viability ([3]; first compound 0.003162 µM) | relative viability ([3]; first compound 0.01 µM) | relative viability ([3]; first compound 0.03162 µM) | relative viability ([3]; first compound 0.1 µM) | relative viability ([4]; first compound 0.003162 µM) | relative viability ([4]; first compound 0.01 µM) | relative viability ([4]; first compound 0.03162 µM) | relative viability ([4]; first compound 0.1 µM) | relative viability ([5]; first compound 0.003162 µM) | relative viability ([5]; first compound 0.01 µM) | relative viability ([5]; first compound 0.03162 µM) | relative viability ([5]; first compound 0.1 µM)
1 | NCI-H1944 | 0.48 | 0.456 | 0.352 | 0.266 | 1.14 | 1.11 | 1.01 | 0.904 | 0.73 | 0.682 | 0.654 | 0.371 | 0.469 | 0.567 | 0.408 | 0.206 | 0.441 | 0.498 | 0.401 | 0.253
2 | NCI-H1975 | 0.356 | 0.229 | 0.14 | 0.125 | 1 | 1.1 | 0.209 | 0.12 | 0.126 | 0.133 | 0.133 | 0.115 | 0.779 | 0.406 | 0.292 | 0.212 | 0.387 | 0.386 | 0.308 | 0.189
3 | NCI-H1993 | 0.544 | 0.576 | 0.495 | 0.339 | 0.934 | 1.19 | 0.63 | 0.508 | 0.764 | 0.595 | 0.466 | 0.429 | 0.712 | 0.618 | 0.475 | 0.315 | 0.613 | 0.505 | 0.477 | 0.389
4 | NCI-H2085 | 0.608 | 0.434 | 0.207 | 0.174 | 1.22 | 0.725 | 0.657 | 0.312 | 0.421 | 0.393 | 0.321 | 0.248 | 1.04 | 0.875 | 0.394 | 0.25 | 0.561 | 0.449 | 0.355 | 0.297
5 | NCI-H2087 | 0.204 | 0.149 | 0.153 | 0.0863 | 0.924 | 0.728 | 0.499 | 0.469 | 0.158 | 0.189 | 0.139 | 0.0928 | 1.23 | 0.767 | 0.589 | 0.279 | 0.379 | 0.226 | 0.175 | 0.082
6 | NCI-H2126 | 0.554 | 0.555 | 0.497 | 0.557 | 0.89 | 0.826 | 0.908 | 0.827 | 0.883 | 0.801 | 0.338 | 0.325 | 1.02 | 0.972 | 0.95 | 0.929 | 0.538 | 0.616 | 0.558 | 0.593
7 | NCI-H2170 | 0.949 | 0.95 | 0.898 | 0.607 | 0.628 | 0.475 | 0.493 | 0.245 | 0.735 | 0.624 | 0.646 | 0.435 | 0.896 | 0.846 | 0.852 | 0.493 | 0.461 | 0.48 | 0.48 | 0.38
